Data: paper PMC5218480 (PLoS ONE, 2017)

Tested on: MV-4-11 cells
Assay: Gene expression microarray analysis (Affymetrix PrimeView) and GSEA
Assay type: cell-based, human
Design: RFU PODN (11730768_x_at) / Fold change /veh PODN (11730768_x_at) / RFU LINC00158 (11744669_a_at) / Fold change /veh LINC00158 (11744669_a_at) / RFU DUSP10 (11751237_a_at) / Fold change /veh DUSP10 (11751237_a_at) / RFU ID3 (11757404_x_at) / Fold change /veh ID3 (11757404_x_at) / RFU PLEKHG5 (11737974_s_at) / Fold change /veh PLEKHG5 (11737974_s_at) / RFU LRRC4B (11730491_at) / Fold change /veh LRRC4B (11730491_at) / RFU GIMAP4 (11747438_a_at) / Fold change /veh GIMAP4 (11747438_a_at) / RFU KRT8 (11758183_x_at) / Fold change /veh KRT8 (11758183_x_at) / RFU CNN1 (11734310_a_at) / Fold change /veh CNN1 (11734310_a_at) / RFU VPS37D (11726825_at) / Fold change /veh VPS37D (11726825_at) / RFU C10orf10 (11716522_x_at) / Fold change /veh C10orf10 (11716522_x_at) / RFU KIR2DL2 /// KIR2DL4 /// KIR2DL5A /// KIR2DL5B /// KIR2DS1 /// KIR2DS2 /// KIR2DS3 /// KIR2DS4 /// KIR3DL3 /// KIR3DL3 /// KIR3DS1 (11738374_at) / Fold change /veh KIR2DL2 /// KIR2DL4 /// KIR2DL5A /// KIR2DL5B /// KIR2DS1 /// KIR2DS2 /// KIR2DS3 /// KIR2DS4 /// KIR3DL3 /// KIR3DL3 /// KIR3DS1 (11738374_at) / RFU C1QL1 (11718748_at) / Fold change /veh C1QL1 (11718748_at) / RFU TMPRSS4 (11747572_a_at) / Fold change /veh TMPRSS4 (11747572_a_at) / RFU HAMP (11756126_x_at) / Fold change /veh HAMP (11756126_x_at) / RFU RNFT2 (11725882_a_at) / Fold change /veh RNFT2 (11725882_a_at) / RFU NR4A2 (11747474_a_at) / Fold change /veh NR4A2 (11747474_a_at) / RFU ABCC12 (11746883_a_at) / Fold change /veh ABCC12 (11746883_a_at) / RFU TMEM136 (11760407_x_at) / Fold change /veh TMEM136 (11760407_x_at) / RFU CLDN22 /// WWC2 (11732394_at) / Fold change /veh CLDN22 /// WWC2 (11732394_at) / RFU HLA-DPB1 (11760878_x_at) / Fold change /veh HLA-DPB1 (11760878_x_at) / RFU SPINT1 (11716480_a_at) / Fold change /veh SPINT1 (11716480_a_at) / RFU GAP43 (11754022_s_at) / Fold change /veh GAP43 (11754022_s_at) / RFU A4GNT (11735810_at) / Fold change /veh A4GNT (11735810_at) / RFU PRB3 (11715151_x_at) / Fold change /veh PRB3 (11715151_x_at) / RFU TUBB4B (11761932_at) / Fold change /veh TUBB4B (11761932_at) / RFU CAPN14 (11732068_a_at) / Fold change /veh CAPN14 (11732068_a_at) / RFU TMCC2 (11721928_a_at) / Fold change /veh TMCC2 (11721928_a_at) / RFU IRGQ (11745062_a_at) / Fold change /veh IRGQ (11745062_a_at) / RFU FAM174B (11720279_a_at) / Fold change /veh FAM174B (11720279_a_at) / RFU TMPRSS4 (11748680_a_at) / Fold change /veh TMPRSS4 (11748680_a_at) / RFU FAM212B (11763350_a_at) / Fold change /veh FAM212B (11763350_a_at) / RFU PLEKHG5 (11743358_a_at) / Fold change /veh PLEKHG5 (11743358_a_at) / RFU ZSCAN30 (11745921_a_at) / Fold change /veh ZSCAN30 (11745921_a_at) / RFU CMKLR1 (11741424_a_at) / Fold change /veh CMKLR1 (11741424_a_at) / RFU LOC101060620 /// MAPK8IP1 (11723275_at) / Fold change /veh LOC101060620 /// MAPK8IP1 (11723275_at) / RFU SPTSSB (11747773_x_at) / Fold change /veh SPTSSB (11747773_x_at) / RFU PRSS12 (11739890_at) / Fold change /veh PRSS12 (11739890_at) / RFU BIN1 (11741810_x_at) / Fold change /veh BIN1 (11741810_x_at) / RFU WNT11 (11732464_a_at) / Fold change /veh WNT11 (11732464_a_at) / RFU C10orf10 (11716521_a_at) / Fold change /veh C10orf10 (11716521_a_at) / RFU C5orf56 (11738089_at) / Fold change /veh C5orf56 (11738089_at) / RFU CYB561 (11721691_x_at) / Fold change /veh CYB561 (11721691_x_at) / RFU ANKRD19P (11752326_a_at) / Fold change /veh ANKRD19P (11752326_a_at) / RFU OR2T12 /// OR2T33 /// OR2T8 (11738714_s_at) / Fold change /veh OR2T12 /// OR2T33 /// OR2T8 (11738714_s_at) / RFU VCAN (11748164_a_at) / Fold change /veh VCAN (11748164_a_at) / RFU JSRP1 (11732532_at) / Fold change /veh JSRP1 (11732532_at) / RFU KRTAP10-11 (11738290_x_at) / Fold change /veh KRTAP10-11 (11738290_x_at) / RFU MYO3A (11730013_a_at) / Fold change /veh MYO3A (11730013_a_at) / RFU EBF3 (11725865_a_at) / Fold change /veh EBF3 (11725865_a_at) / RFU CAMK2N1 (11719241_x_at) / Fold change /veh CAMK2N1 (11719241_x_at) / RFU C5orf56 (11738088_a_at) / Fold change /veh C5orf56 (11738088_a_at) / RFU OLFML3 (11715873_a_at) / Fold change /veh OLFML3 (11715873_a_at) / RFU LOC100653217 /// NTM (11731650_a_at) / Fold change /veh LOC100653217 /// NTM (11731650_a_at) / RFU MAPK11 (11762145_a_at) / Fold change /veh MAPK11 (11762145_a_at) / RFU FIZ1 (11724087_x_at) / Fold change /veh FIZ1 (11724087_x_at) / RFU OASL (11726364_x_at) / Fold change /veh OASL (11726364_x_at) / RFU SOX15 (11748057_x_at) / Fold change /veh SOX15 (11748057_x_at) / RFU CD79A (11719716_a_at) / Fold change /veh CD79A (11719716_a_at) / RFU HIST1H1D (11736915_at) / Fold change /veh HIST1H1D (11736915_at) / RFU CASKIN2 (11723855_a_at) / Fold change /veh CASKIN2 (11723855_a_at) / RFU LOC730098 (11760151_x_at) / Fold change /veh LOC730098 (11760151_x_at) / RFU OR4N2 (11742367_at) / Fold change /veh OR4N2 (11742367_at) / RFU PRRT2 (11749266_a_at) / Fold change /veh PRRT2 (11749266_a_at) / RFU SNX32 (11753110_a_at) / Fold change /veh SNX32 (11753110_a_at) / RFU CDHR5 (11726645_a_at) / Fold change /veh CDHR5 (11726645_a_at) / RFU RCAN1 (11760418_a_at) / Fold change /veh RCAN1 (11760418_a_at) / RFU FAM167A (11723789_a_at) / Fold change /veh FAM167A (11723789_a_at) / RFU FAM26E (11764081_at) / Fold change /veh FAM26E (11764081_at) / RFU ISYNA1 (11749810_s_at) / Fold change /veh ISYNA1 (11749810_s_at) / RFU ACY1 (11761880_at) / Fold change /veh ACY1 (11761880_at) / RFU 11764098_at / Fold change /veh 11764098_at / RFU SAMD14 (11745864_x_at) / Fold change /veh SAMD14 (11745864_x_at) / RFU NPB (11741838_a_at) / Fold change /veh NPB (11741838_a_at) / RFU TMPRSS6 (11731388_a_at) / Fold change /veh TMPRSS6 (11731388_a_at) / RFU KRTAP10-2 (11738614_at) / Fold change /veh KRTAP10-2 (11738614_at) / RFU ARHGAP8 /// PRR5-ARHGAP8 (11727945_x_at) / Fold change /veh ARHGAP8 /// PRR5-ARHGAP8 (11727945_x_at) / RFU KRTAP5-7 /// NADSYN1 (11734609_at) / Fold change /veh KRTAP5-7 /// NADSYN1 (11734609_at) / RFU RASL12 (11751679_a_at) / Fold change /veh RASL12 (11751679_a_at) / RFU CDKN2B (11736163_a_at) / Fold change /veh CDKN2B (11736163_a_at) / RFU PRF1 (11729649_at) / Fold change /veh PRF1 (11729649_at) / RFU, ZNF638 /// ZNF638-IT1 / Fold change vs veh, ZNF638 /// ZNF638-IT1 / RFU, PANK3 / Fold change vs veh, PANK3 / RFU, SH3YL1 / Fold change vs veh, SH3YL1 / RFU, ZEB2 / Fold change vs veh, ZEB2 / RFU, NRIP1 / Fold change vs veh, NRIP1 / RFU, PTTG1IP / Fold change vs veh, PTTG1IP / RFU, CAPN2 / Fold change vs veh, CAPN2 / RFU, MED14 / Fold change vs veh, MED14 / RFU, SNORA58 / Fold change vs veh, SNORA58 / RFU, C1orf63 / Fold change vs veh, C1orf63 / RFU, LRRFIP1 / Fold change vs veh, LRRFIP1 / RFU, NDUFAF7 / Fold change vs veh, NDUFAF7 / RFU, SLC12A2 / Fold change vs veh, SLC12A2 / RFU, IBTK / Fold change vs veh, IBTK / RFU, ESF1 / Fold change vs veh, ESF1 / Fold change vs veh, TMEM50B / RFU, TAOK1 / Fold change vs veh, TAOK1 / RFU, ACBD3 / Fold change vs veh, ACBD3 / RFU, TMA16 / Fold change vs veh, TMA16 / RFU, RWDD3 / Fold change vs veh, RWDD3 / RFU, BCAT1 / Fold change vs veh, BCAT1 / RFU, EDEM3 / Fold change vs veh, EDEM3 / RFU, TMEM33 / Fold change vs veh, TMEM33 / RFU, WDR75 / Fold change vs veh, WDR75 / RFU, AHCTF1 / Fold change vs veh, AHCTF1 / RFU, TFRC / Fold change vs veh, TFRC / RFU, ZDHHC17 / Fold change vs veh, ZDHHC17 / RFU, NOM1 / Fold change vs veh, NOM1 / RFU, ARL8B / Fold change vs veh, ARL8B / RFU, ZBTB11 / Fold change vs veh, ZBTB11 / RFU, TAMM41 / Fold change vs veh, TAMM41 / RFU, KIAA1704 /// LOC100996395 / Fold change vs veh, KIAA1704 /// LOC100996395 / RFU, ING1 / Fold change vs veh, ING1 / RFU, TRMT61B / Fold change vs veh, TRMT61B / RFU, FUBP3 / Fold change vs veh, FUBP3 / RFU, TP53 / Fold change vs veh, TP53 / RFU, TNKS2 / Fold change vs veh, TNKS2 / RFU, ZFP14 / Fold change vs veh, ZFP14 / RFU, ACTR2 / Fold change vs veh, ACTR2 / RFU, PPP3R1 / Fold change vs veh, PPP3R1 / RFU, PIK3R1 / Fold change vs veh, PIK3R1 / RFU, HNRNPA1 / Fold change vs veh, HNRNPA1 / RFU, RNF170 / Fold change vs veh, RNF170 / RFU, ZNF28 / Fold change vs veh, ZNF28 / RFU, RNGTT / Fold change vs veh, RNGTT / RFU, OGT / Fold change vs veh, OGT / RFU, BRD1 / Fold change vs veh, BRD1 / RFU, MARS / Fold change vs veh, MARS / RFU, ZNF655 / Fold change vs veh, ZNF655 / RFU, FAHD1 / Fold change vs veh, FAHD1 / RFU, BDP1 / Fold change vs veh, BDP1 / RFU, LRRCC1 / Fold change vs veh, LRRCC1 / RFU, ARID1A / Fold change vs veh, ARID1A / RFU, ZNF146 / Fold change vs veh, ZNF146 / RFU, ZNF330 / Fold change vs veh, ZNF330 / RFU, GPN3 / Fold change vs veh, GPN3 / RFU, C9orf123 / Fold change vs veh, C9orf123 / RFU, N4BP2L2 / Fold change vs veh, N4BP2L2 / RFU, ARFIP1 / Fold change vs veh, ARFIP1 / RFU, FAM179B / Fold change vs veh, FAM179B / RFU, BCL10 / Fold change vs veh, BCL10 / RFU, UHRF1BP1L / Fold change vs veh, UHRF1BP1L / RFU, BET1 / Fold change vs veh, BET1 / RFU, CNOT2 / Fold change vs veh, CNOT2 / RFU, ZNF268 / Fold change vs veh, ZNF268 / Fold change vs veh, ZNF507 / RFU, DGCR2 / Fold change vs veh, DGCR2 / RFU, WDSUB1 / Fold change vs veh, WDSUB1 / Fold change vs veh, HSP90B1 /// MIR3652 / RFU, ADSS / Fold change vs veh, ADSS / RFU, GK / Fold change vs veh, GK / RFU, ZNF148 / Fold change vs veh, ZNF148 / RFU, TAF9 / Fold change vs veh, TAF9 / RFU, SLC1A5 / Fold change vs veh, SLC1A5 / RFU, SLMO2 / Fold change vs veh, SLMO2 / RFU, ABCC4 / Fold change vs veh, ABCC4 / RFU, LOC101060439 /// RAP1B / Fold change vs veh, LOC101060439 /// RAP1B / RFU, RFX7 / Fold change vs veh, RFX7 / RFU, GTPBP10 / Fold change vs veh, GTPBP10 / RFU, CNEP1R1 / Fold change vs veh, CNEP1R1 / RFU, BIVM-ERCC5 /// ERCC5 / Fold change vs veh, BIVM-ERCC5 /// ERCC5 / RFU, ILF3 / Fold change vs veh, ILF3 / RFU 11762660_at / Fold change /veh 11762660_at / RFU VCAN (11757783_s_at) / Fold change /veh VCAN (11757783_s_at) / RFU DDX43 (11728927_at) / Fold change /veh DDX43 (11728927_at) / RFU KRT8 (11758188_x_at) / Fold change /veh KRT8 (11758188_x_at) / RFU NKD1 (11759106_at) / Fold change /veh NKD1 (11759106_at) / RFU SRD5A1 (11742802_a_at) / Fold change /veh SRD5A1 (11742802_a_at) / RFU TPSAB1 /// TPSB2 (11721975_s_at) / Fold change /veh TPSAB1 /// TPSB2 (11721975_s_at) / RFU GSTM3 (11746129_a_at) / Fold change /veh GSTM3 (11746129_a_at) / RFU IL23R (11737362_x_at) / Fold change /veh IL23R (11737362_x_at) / RFU TMEM51 (11727254_a_at) / Fold change /veh TMEM51 (11727254_a_at) / RFU PIWIL2 (11732686_x_at) / Fold change /veh PIWIL2 (11732686_x_at) / RFU ORM1 (11744905_x_at) / Fold change /veh ORM1 (11744905_x_at) / RFU CCDC152 (11743942_at) / Fold change /veh CCDC152 (11743942_at) / RFU ECM1 (11717891_a_at) / Fold change /veh ECM1 (11717891_a_at) / RFU IL23R (11748794_a_at) / Fold change /veh IL23R (11748794_a_at) / RFU TNFAIP8L3 (11732012_x_at) / Fold change /veh TNFAIP8L3 (11732012_x_at) / RFU MBOAT4 (11741988_at) / Fold change /veh MBOAT4 (11741988_at) / RFU 11764193_at / Fold change /veh 11764193_at / RFU TMEM53 (11763286_at) / Fold change /veh TMEM53 (11763286_at) / RFU MAGEB2 (11727129_at) / Fold change /veh MAGEB2 (11727129_at) / RFU TMEM200A (11744735_a_at) / Fold change /veh TMEM200A (11744735_a_at) / RFU CCDC152 (11751479_a_at) / Fold change /veh CCDC152 (11751479_a_at) / RFU FAM211A (11726209_a_at) / Fold change /veh FAM211A (11726209_a_at) / RFU RGS16 (11746705_a_at) / Fold change /veh RGS16 (11746705_a_at) / RFU VCAN (11755009_s_at) / Fold change /veh VCAN (11755009_s_at) / RFU RHOB (11743442_s_at) / Fold change /veh RHOB (11743442_s_at) / RFU RGS16 (11720943_a_at) / Fold change /veh RGS16 (11720943_a_at) / RFU RGS16 (11720944_at) / Fold change /veh RGS16 (11720944_at) / RFU, VPS4B / Fold change vs veh, VPS4B / RFU, CREB1 / Fold change vs veh, CREB1 / RFU, DNAJC13 / Fold change vs veh, DNAJC13 / RFU, GNAQ / Fold change vs veh, GNAQ / RFU, CDK5R1 / Fold change vs veh, CDK5R1 / RFU, ZRANB3 / Fold change vs veh, ZRANB3 / RFU, CUL4A / Fold change vs veh, CUL4A / RFU, CCNY / Fold change vs veh, CCNY / RFU, UFL1 / Fold change vs veh, UFL1 / RFU, COG3 / Fold change vs veh, COG3 / RFU, DIAPH2 / Fold change vs veh, DIAPH2 / RFU, SKA2 / Fold change vs veh, SKA2 / RFU, AFF3 / Fold change vs veh, AFF3 / RFU, LMF1 / Fold change vs veh, LMF1 / RFU, IPO11 / Fold change vs veh, IPO11 / RFU, DFFB / Fold change vs veh, DFFB / RFU, FOXP1 / Fold change vs veh, FOXP1 / RFU, CARD8 / Fold change vs veh, CARD8 / RFU, STRN3 / Fold change vs veh, STRN3 / RFU, ADK / Fold change vs veh, ADK / RFU, RASSF2 / Fold change vs veh, RASSF2 / RFU, WIPF1 / Fold change vs veh, WIPF1 / RFU, LARP1B / Fold change vs veh, LARP1B / RFU, RASA1 / Fold change vs veh, RASA1 / RFU, RB1 / Fold change vs veh, RB1 / RFU, PPFIA1 / Fold change vs veh, PPFIA1 / RFU, MAT2A / Fold change vs veh, MAT2A / RFU, CCT5 / Fold change vs veh, CCT5 / RFU, WDR92 / Fold change vs veh, WDR92 / RFU, CUX1 / Fold change vs veh, CUX1 / RFU, TTC7A / Fold change vs veh, TTC7A / RFU, TMEM135 / Fold change vs veh, TMEM135 / RFU, DEPTOR / Fold change vs veh, DEPTOR / RFU, CPM / Fold change vs veh, CPM / RFU, DNAJB6 / Fold change vs veh, DNAJB6 / RFU, CACNA2D3 / Fold change vs veh, CACNA2D3 / RFU, DTX4 / Fold change vs veh, DTX4 / RFU, TFCP2 / Fold change vs veh, TFCP2 / RFU, GMCL1 /// GMCL1P1 / Fold change vs veh, GMCL1 /// GMCL1P1 / RFU, AEBP2 / Fold change vs veh, AEBP2 / RFU, SNHG1 /// SNORD22 /// SNORD25 /// SNORD26 /// SNORD27 /// SNORD28 /// SNORD29 /// SNORD31 / Fold change vs veh, SNHG1 /// SNORD22 /// SNORD25 /// SNORD26 /// SNORD27 /// SNORD28 /// SNORD29 /// SNORD31 / Fold change (Aza/veh), C12orf56 (ProbeSet 11735607_a_at) / Fold change (ACY-1035/veh), C12orf56 (ProbeSet 11735607_a_at) / Fold change (Aza/veh), FGFR1OP (ProbeSet 11751329_s_at) / Fold change (ACY-1035/veh), FGFR1OP (ProbeSet 11751329_s_at) / Fold change (Aza/veh), VPS36 (ProbeSet 11739960_a_at) / Fold change (ACY-1035/veh), VPS36 (ProbeSet 11739960_a_at) / RFU SYPL1 (11715823_x_at) / Fold change /veh SYPL1 (11715823_x_at) / RFU IGFBP7 (11715501_s_at) / Fold change /veh IGFBP7 (11715501_s_at) / RFU REEP3 (11722064_at) / Fold change /veh REEP3 (11722064_at) / RFU IGLL1 (11728026_x_at) / Fold change /veh IGLL1 (11728026_x_at): dose or concentration left out as unconfirmed
Settings: MV-4-11 cells, 48 hours

Nc1ncn([C@@H]2O[C@H](CO)[C@@H](O)[C@H]2O)c(=O)n1 [azacitidine]
Fold change /veh TMPRSS6 (11731388_a_at): 1.02
